Reference: patent US20240245639A1, “Dermal Application of Retinoic Acid Receptor Agonists for Amelioration of Hypertrophic Scar” (Northwestern University, priority 2023, published 2024)
Read-outs that look alike come from different tables or passages of the source. Blank lines part the entries; values can stand above or below the molecule they belong to.

Key:
Assay type in all cases: cell-based
[1] = tested on: primary human foreskin fibroblasts; assay: Antagonism of fibroblast activation in presence or absence of TGF-β1 (qRT-PCR, Western blot, immunofluorescence); details: 10,000 nM ATRA, ± 10 ng/mL TGF-β1, 48 hours
Experimental: RAR Agonist all-Trans Retinoic Acid Antagonizes Myofibroblast Activation We then wished to see whether another RAR agonist could antagonize myofibroblast activation.
(§1) Cells cultured on glass coverslips were fixed in 4% paraformaldehyde for 30 minutes at room temperature. Cells were blocked in 10% normal goat serum and incubated overnight at 4° C. in solutions of the following primary antibodies: Rabbit monoclonal α-human α-SMA (1:500 dilution, catalog #192455, Cell Signaling Technology, Danvers M A) or mouse α-human COL1A1 (1:1000 dilution, catalog #M-38c, DSHB, Iowa City, IA). The following day, cells were incubated in 1:200 diluted solutions of goat-α-rabbit IgG or donkey-α-mouse IgG Alexafluor 488-conjugated secondary antibodies (A11034 or A21202, Invitrogen) containing Alexafluor 568-conjugated phalloidin (A12380, Invitrogen) for 2 hours in the dark at room temperature, before a 20 minute counterstain in 500 ng/mL DAPI. Coverslips were mounted onto slides in the dark using Fluoro Gel with DABCO (Electron Microscopy Sciences, Hatfield, PA) and imaged on an EVOS-FL imaging system (ThermoFisher).
Harvested scar tissues were incubated in 0.5M ammonium thiocyanate for 20 minutes, followed by mechanical separation of dermis and epidermis using a dissecting microscope. Isolated dermal tissues were minced with a razor blade, submerged in RIPA buffer, and homogenized in the presence of 2 mm zirconia beads using a MagNA Lyser (Roche, Basel, Switzerland). Alternatively, cell culture samples were detached from the culture surface by trypsinization, collected by centrifugation, and lysed in RIPA buffer. Protein concentrations of cell culture and tissue samples were determined using a DC protein assay (BioRad). Five micrograms of total protein were loaded onto polyacrylamide gels and subjected to SDS-PAGE before transfer to nitrocellulose membranes, blocking with 5% dry milk in TBS-T, and probing with target-specific primary antibodies overnight. Species-specific secondary antibody solutions were added to membranes, and chemiluminescent signal was developed with Amersham ECL Western blotting detection reagent using X-ray film.
Primary antibodies used were rabbit anti-α-SMA (1:1000, 19245S, Cell Signaling Technology), rabbit anti-collagen I (1:1000, ab34710, Abcam), mouse anti-collagen I (1:1000, C2456, Sigma-Aldrich), and mouse anti-GAPDH (1:5000, MA5-15738, Invitrogen). Secondary antibodies utilized were HRP goat anti-rabbit IgG(H+L) and horse anti-mouse IgG(H+L) (Vector Laboratories, Newark, CA), both used at 1:5000.

[2] = tested on: primary human keloid fibroblasts; assay: Collagen I deposition in keloid fibroblasts (Western blot, immunofluorescence); details: keloid fibroblasts, ATRA, data not shown
Experimental: (§2) Since overproduction of collagen is characteristic of fibroblasts in tissue fibrosis, including hypertrophic scar and keloid, we wished to determine whether Ch55 also affects deposition of collagen I by these fibroblasts.
as §1, with “Coverslips were mounted onto slides in the dark using Fluoro Gel with DABCO (Electron Microscopy Sciences, Hatfield, PA) and imaged on an EVOS-FL imaging system (ThermoFisher).” left out
(§3) Harvested scar tissues were incubated in 0.5M ammonium thiocyanate for 20 minutes, followed by mechanical separation of dermis and epidermis using a dissecting microscope. […] Protein concentrations of cell culture and tissue samples were determined using a DC protein assay (BioRad). […]

[3] = tested on: primary human HTS fibroblasts; assay: Collagen I deposition in hypertrophic scar fibroblasts (Western blot, immunofluorescence); details: HTS fibroblasts, ATRA, data not shown
Experimental: as §2
as §1, with “Coverslips were mounted onto slides in the dark using Fluoro Gel with DABCO (Electron Microscopy Sciences, Hatfield, PA) and imaged on an EVOS-FL imaging system (ThermoFisher).” left out
as §3

[4] = tested on: primary human foreskin fibroblasts; assay: In vitro single-concentration screen of predicted compounds (brightfield, qRT-PCR)
Experimental: In order to initially test the identified drugs, we applied each drug or DMSO vehicle control at a single concentration to primary human foreskin fibroblasts in vitro for 24 hours, before harvesting and measuring relative expression of selected myofibroblast marker genes by qRT-PCR. […] None of the drugs tested appeared to affect expression of TGFB1 (the gene encoding transforming growth factor-beta 1) at the examined concentrations.
MATERIALS AND METHODS Materials Emetine dihydrochloride hydrate, homoharringtonine, Ch55 and panobinostat were acquired from Fisher Scientific (Waltham, MA). AZD-7762 was acquired from Selleck Chemicals (Houston, TX). For in vitro work, emetine dihydrochloride hydrate was dissolved in sterile H2O at 50 mM. Homoharringtonine was dissolved in DMSO at 10 mg/mL. Panobinostat was dissolved in DMSO at 425 μM. […] AZD-7762 was dissolved in DMSO at 500 μM. Recombinant human TGF-β1 (Sigma-Aldrich) was dissolved in sterile H2O at 50 µg/mL. All-trans-retinoic acid (Thermo Scientific) was dissolved in DMSO at 10 mM.

[5] = single concentration, 24 hours, vs vehicle

SMILES: CC1=C(/C=C/C(C)=C/C=C/C(C)=C/C(=O)O)C(C)(C)CCC1 [ATRA, all-trans retinoic acid]
F-actin stress fiber formation [1]: substantially decreased
collagen I protein (Western blot, immunofluorescence) [1]: substantially decreased
α-SMA protein (Western blot, immunofluorescence) [1]: substantially decreased
expression of collagen I [2]: dramatically decreased
expression of collagen I [3]: dramatically decreased

SMILES: NC(=O)Nc1cc(-c2cccc(F)c2)sc1C(=O)N[C@H]1CCCNC1 [AZD-7762]
downregulation of myofibroblast-associated genes ([4]; single concentration, 24 hours): neither did it appear to downregulate
myofibroblast activation ([4]; single concentration, 24 hours): did not show a similar effect of fibroblast activation

SMILES: CC[C@H]1CN2CCc3cc(OC)c(OC)cc3[C@@H]2C[C@@H]1C[C@H]1NCCc2cc(OC)c(OC)cc21 [emetine]
detachment of cells from the tissue culture plate ([4]; single concentration, 24 hours): notable detachment of cells
myofibroblast activation ([4]; single concentration, 24 hours): induced myofibroblast activation
CCN2 expression (qRT-PCR) [4, 5]: increased expression
MMP1 expression (qRT-PCR) [4, 5]: decreased expression
SERPINE1 expression (qRT-PCR) [4, 5]: increased expression

detachment of cells from the tissue culture plate [4]: notable detachment of cells
SMILES: COC(=O)C[C@](O)(CCCC(C)(C)O)C(=O)O[C@@H]1C(OC)=C[C@]23CCCN2CCc2cc4c(cc2[C@H]13)OCO4 [homoharringtonine]
